This is an account of results in patent US11780893B2, “Kv1.3 blockers” (Zealand Pharma A/S, priority 2019, dated 2023).

The target of data set [1] is T1, human Kv1.3 voltage-gated K+ channel (Homo sapiens, UniProt P22001).
T1 construct: host or cells: CHO-DUKX
The data set can be described thus: cell-based.

The next data set concerns the target T2, Kv1.1 (Homo sapiens, UniProt Q09470).
T2 construct: expressed in transfected cells; host or cells: Chinese Hamster Ovary (CHO)
The data set can be described thus: cell-based. Conditions: for IC50: CHO cells, whole-cell patch clamp, read-out: Potency IC50 (nM) Kv1.1; for Selectivity Kv1.1/Kv1.3: ratio IC50[Kv1.1]/IC50[Kv1.3]. A general note: In patch-clamp work, channel activity is measured electrically.

Another data set addresses T3, Kv1.2 (Homo sapiens, UniProt P16389).
T3 construct: expressed in transfected cells; host or cells: Chinese Hamster Ovary (CHO)
Nature of the data set: cell-based. Particulars: for IC50: CHO cells, whole-cell patch clamp, read-out: Potency IC50 (nM) Kv1.2.

For the next data set, the target named is T4, Kv1.3 (Homo sapiens, UniProt P22001).
T4 construct: expressed in transfected cells; host or cells: Chinese Hamster Ovary (CHO)
Nature of the data set: cell-based. Particulars: for IC50: CHO cells, whole-cell patch clamp, read-out: Potency IC50 (nM) Kv1.3.

The target of another data set is T5, Kv1.6 (Homo sapiens, UniProt P17658).
T5 construct: expressed in transfected cells; host or cells: Chinese Hamster Ovary (CHO)
Nature of the data set: cell-based. Conditions: for IC50: CHO cells, whole-cell patch clamp, read-out: Potency IC50 (nM) Kv1.6; for Selectivity Kv1.6/Kv1.3: ratio IC50[Kv1.6]/IC50[Kv1.3].

Data set [2] concerns delayed-type hypersensitivity (DTH) ear swelling response. In kind it is in vivo, rat.
The target of another data set is Rat whole blood (Rattus norvegicus, UniProt P15384).
The next data set can be described thus: in vivo. Conditions: male, rat, sc, 70 nmol/kg.
[3] abbreviates: inhibition of thallium flux, CHO-DUKX cells with human Kv1.3, read-out: IC50.

The structures appear in SMILES notation. pIC50: −log10 of the molar value. Like-named read-outs stand apart in the source and are kept apart here. Bridge positions count the residues as written; N and C are the ends. Square brackets hold non-standard residues; d marks the D form. Peptide text beside a SMILES is read from it. Nle = CCCC[C@H](N)C(=O)O

T2 sequence (Q09470 whole entry): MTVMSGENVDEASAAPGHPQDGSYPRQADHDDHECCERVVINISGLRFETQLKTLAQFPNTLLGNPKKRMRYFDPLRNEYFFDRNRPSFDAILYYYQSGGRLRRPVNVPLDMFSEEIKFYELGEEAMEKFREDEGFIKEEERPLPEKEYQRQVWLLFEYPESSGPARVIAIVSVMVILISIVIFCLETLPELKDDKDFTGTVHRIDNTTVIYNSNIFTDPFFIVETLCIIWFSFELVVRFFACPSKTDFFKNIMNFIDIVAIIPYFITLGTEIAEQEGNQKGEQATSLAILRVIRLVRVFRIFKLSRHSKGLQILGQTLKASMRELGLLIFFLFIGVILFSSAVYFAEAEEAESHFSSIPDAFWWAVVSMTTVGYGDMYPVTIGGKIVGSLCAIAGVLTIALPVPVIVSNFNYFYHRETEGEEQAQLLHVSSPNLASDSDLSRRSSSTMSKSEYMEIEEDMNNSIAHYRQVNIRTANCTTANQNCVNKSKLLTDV
T3 sequence (P16389 whole entry): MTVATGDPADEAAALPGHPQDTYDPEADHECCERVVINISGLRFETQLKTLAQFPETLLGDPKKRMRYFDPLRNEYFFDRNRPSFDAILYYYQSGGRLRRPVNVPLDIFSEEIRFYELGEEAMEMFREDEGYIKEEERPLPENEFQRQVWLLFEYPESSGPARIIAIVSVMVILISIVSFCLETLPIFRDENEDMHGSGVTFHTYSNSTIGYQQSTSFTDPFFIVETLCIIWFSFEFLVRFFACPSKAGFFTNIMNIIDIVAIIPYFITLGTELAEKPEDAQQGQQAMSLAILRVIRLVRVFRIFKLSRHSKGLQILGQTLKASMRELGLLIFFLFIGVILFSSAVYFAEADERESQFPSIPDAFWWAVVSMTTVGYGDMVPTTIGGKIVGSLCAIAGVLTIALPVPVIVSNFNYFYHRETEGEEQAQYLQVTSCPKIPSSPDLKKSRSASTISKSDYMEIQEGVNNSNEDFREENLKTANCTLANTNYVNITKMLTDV
T5 sequence (P17658 whole entry): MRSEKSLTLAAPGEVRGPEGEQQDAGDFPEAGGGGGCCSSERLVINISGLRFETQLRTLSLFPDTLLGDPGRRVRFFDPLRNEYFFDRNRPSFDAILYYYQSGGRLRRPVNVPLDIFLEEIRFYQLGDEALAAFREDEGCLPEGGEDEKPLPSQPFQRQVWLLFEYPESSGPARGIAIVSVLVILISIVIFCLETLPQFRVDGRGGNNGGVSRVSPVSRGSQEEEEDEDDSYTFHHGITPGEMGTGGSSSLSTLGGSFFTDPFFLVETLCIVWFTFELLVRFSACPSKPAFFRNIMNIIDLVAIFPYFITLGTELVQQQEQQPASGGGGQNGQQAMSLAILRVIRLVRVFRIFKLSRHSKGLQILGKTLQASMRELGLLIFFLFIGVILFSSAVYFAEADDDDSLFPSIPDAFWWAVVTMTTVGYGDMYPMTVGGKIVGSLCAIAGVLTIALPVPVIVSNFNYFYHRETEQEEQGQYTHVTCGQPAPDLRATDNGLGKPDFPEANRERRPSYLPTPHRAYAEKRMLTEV
T4 sequence (P22001 whole entry): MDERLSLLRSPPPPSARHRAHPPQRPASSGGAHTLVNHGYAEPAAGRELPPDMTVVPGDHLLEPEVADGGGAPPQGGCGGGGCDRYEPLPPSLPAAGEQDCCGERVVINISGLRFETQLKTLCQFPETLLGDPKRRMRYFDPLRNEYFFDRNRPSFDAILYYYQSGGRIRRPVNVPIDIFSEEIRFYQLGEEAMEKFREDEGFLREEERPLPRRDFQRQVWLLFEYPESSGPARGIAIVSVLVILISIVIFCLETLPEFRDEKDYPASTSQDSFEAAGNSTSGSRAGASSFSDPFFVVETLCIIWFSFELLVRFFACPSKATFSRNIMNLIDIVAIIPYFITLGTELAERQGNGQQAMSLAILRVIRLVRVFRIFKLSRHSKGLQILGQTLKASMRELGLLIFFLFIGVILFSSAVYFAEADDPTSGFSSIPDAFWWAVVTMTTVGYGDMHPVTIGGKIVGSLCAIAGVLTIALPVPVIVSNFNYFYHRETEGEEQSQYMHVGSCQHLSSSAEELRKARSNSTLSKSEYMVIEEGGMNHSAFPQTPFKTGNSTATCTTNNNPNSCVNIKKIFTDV
T1 sequence (P22001 whole entry): as above
Chain of Rat whole blood (P15384 whole entry): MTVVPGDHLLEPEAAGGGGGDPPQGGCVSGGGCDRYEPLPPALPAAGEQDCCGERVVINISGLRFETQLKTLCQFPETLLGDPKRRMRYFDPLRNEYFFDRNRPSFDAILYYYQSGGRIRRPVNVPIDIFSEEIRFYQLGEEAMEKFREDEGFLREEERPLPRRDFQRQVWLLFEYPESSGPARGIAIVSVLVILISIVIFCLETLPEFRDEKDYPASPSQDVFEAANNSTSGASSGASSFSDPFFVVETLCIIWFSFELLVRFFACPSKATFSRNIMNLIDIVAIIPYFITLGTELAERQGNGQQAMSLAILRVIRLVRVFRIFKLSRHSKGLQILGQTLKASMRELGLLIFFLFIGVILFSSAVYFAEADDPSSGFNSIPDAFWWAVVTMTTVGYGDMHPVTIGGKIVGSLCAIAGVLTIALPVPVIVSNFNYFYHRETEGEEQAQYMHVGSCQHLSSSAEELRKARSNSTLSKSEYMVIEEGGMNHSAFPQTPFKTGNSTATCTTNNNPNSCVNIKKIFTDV

In general, pIC50 refers to the negative decadic logarithm of the IC50, by convention in mol/L. As usually defined, the AUC(0-inf) is the area under the concentration-time curve extrapolated to infinity. For orientation: Cmax means the peak of the concentration-time curve. As a reminder, the half-life is the time in which the quantity being followed falls by half. Read a low half-life as fast loss. Take `CCCC[C@@H]1NC(=O)[C@@H]2CSSC[C@H](NC(=O)[C@H](CCCNC(=N)N)NC(=O)[C@H](CCCC)NC(=O)[C@H](CCC(=O)O)NC(=O)[C@@H](NC(=O)[C@@H]3CCCN3)[C@@H](C)CC)C(=O)N[C@@H](CO)C(=O)N[C@@H](C)C(=O)N[C@@H](CO)C(=O)N[C@@H](C(C)C)C(=O)N[C@@H](CCC(=O)O)C(=O)N[C@H]3CSSC[C@H](NC(=O)[C@H](CCCCN)NC(=O)[C@H](CCCCN)NC(=O)[C@H](CC(N)=O)NC1=O)C(=O)N[C@@H](CCCCN)C(=O)N[C@H](C(=O)N[C@@H](Cc1ccc(O)cc1)C(=O)N1CCC[C@H]1C(=O)N[C@@H](CCCNC(=N)N)C(=O)O)CSSC[C@H](NC(=O)[C@H](CCCCN)NC(=O)[C@H](CCC(N)=O)NC(=O)[C@H](CCCCN)NC3=O)C(=O)N[C@@H](CC(C)C)C(=O)N[C@@H](C)C(=O)N[C@@H](C)C(=O)N[C@@H]([C@@H](C)CC)C(=O)NCC(=O)N[C@@H](CO)C(=O)N[C@@H]([C@@H](C)CC)C(=O)N[C@@H](Cc1ccccc1)C(=O)NCC(=O)N[C@@H](CCCCN)C(=O)N2` [Compound 101] (H-PIE[Nle]RCSASVECKQKCLAAIGSIFGKC[Nle]NKKCKCYPR-OH; disulfide 6-27, 12-32, 16-34): the pIC50 in data set [1] is 9.74; on Kv1.1 it was less than 5.52; against Kv1.2, 5.71; against Kv1.3 it was 9.46; on Kv1.6 it was less than 5.52; on Rat whole blood it was no less than 9.00. For the same compound, the “% inhibition of ear thickness (AUC of Δ ear thickness 0-48 hours)” value in data set [2] (rat, in vivo) came to 44.5%. In “in vivo”, this compound registered an area under the curve AUC(0-inf) of 0.132 µM·h. In addition, in the data set “in vivo”, the Cmax amounted to 58.6 nM. The half-life in the data set “in vivo” was 54.6 min.
One may read the IC50 as the midpoint of a concentration-inhibition curve. Consider `CCCC[C@H](NC(=O)[C@@H]1CCCN1)C(=O)N[C@@H](CCC(=O)O)C(=O)N[C@@H](CCCC)C(=O)N[C@@H](CCCNC(=N)N)C(=O)N[C@H]1CSSC[C@@H]2NC(=O)[C@H](CCCCN)NC(=O)CNC(=O)[C@H](Cc3ccccc3)NC(=O)[C@H]([C@@H](C)CC)NC(=O)[C@H](CO)NC(=O)CNC(=O)[C@H]([C@@H](C)CC)NC(=O)[C@H](C)NC(=O)[C@H](C)NC(=O)[C@H](CC(C)C)NC(=O)[C@@H]3CSSC[C@@H](C(=O)N[C@@H](Cc4ccc(O)cc4)C(=O)N4CCC[C@H]4C(=O)N[C@@H](CCCNC(=N)N)C(=O)O)NC(=O)[C@H](CCCCN)NC(=O)[C@H](CSSC[C@H](NC(=O)[C@H](CCC(=O)O)NC(=O)[C@H](C(C)C)NC(=O)[C@H](CO)NC(=O)[C@H](C)NC(=O)[C@H](CO)NC1=O)C(=O)N[C@@H](C)C(=O)N[C@@H](CCC(N)=O)C(=O)N[C@@H](CCCCN)C(=O)N3)NC(=O)[C@H](CCCCN)NC(=O)[C@H](CCCCN)NC(=O)[C@H](CC(N)=O)NC(=O)[C@H](CCCC)NC2=O` [Compound 103] (H-P[Nle]E[Nle]RCSASVECAQKCLAAIGSIFGKC[Nle]NKKCKCYPR-OH; disulfide 6-27, 12-32, 16-34), for which the pIC50 in data set [1] (setting [3]) is 9.42. Also, on Kv1.1, the IC50 is greater than 3000 nM and the “Selectivity Kv1.1/Kv1.3” value is greater than 5500. In addition, at Kv1.2, the IC50 was greater than 3000 nM. For the same compound, at Kv1.3, the IC50 was found to be 0.55 nM. Besides, at Kv1.6, the IC50 was greater than 3000 nM and the “Selectivity Kv1.6/Kv1.3” value is reported as greater than 5500. For the same compound, in data set [2] (Exp #7, Kv1.3 blocker 100 nmol/kg SC 24 hrs prior to KLH challenge, CsA 10 mg/kg per os), the “% inhibition of ear thickness (AUC of Δ ear thickness 0-48 hours)” value is recorded as 48.9%. In “in vivo”, this compound gave an AUC(0-inf) of 0.177 µM·h, a Cmax of 68.4 nM and a half-life of 81.6 min.
Regarding `CCCC[C@@H]1NC(=O)[C@@H]2CSSC[C@H](NC(=O)[C@H](CCCNC(=N)N)NC(=O)[C@H](CCCC)NC(=O)[C@H](CC(=O)O)NC(=O)[C@@H](NC(=O)[C@@H](N)CC(N)=O)[C@@H](C)CC)C(=O)N[C@@H](CO)C(=O)N[C@@H](C)C(=O)N[C@@H](CO)C(=O)N[C@@H](C(C)C)C(=O)N[C@@H](CCC(=O)O)C(=O)N[C@H]3CSSC[C@H](NC(=O)[C@H](CCCCN)NC(=O)[C@H](CCCCN)NC(=O)[C@H](CC(N)=O)NC1=O)C(=O)N[C@@H](CCCCN)C(=O)N[C@H](C(=O)N[C@@H](Cc1ccc(O)cc1)C(=O)N1CCC[C@H]1C(=O)N[C@@H](CCCNC(=N)N)C(=O)O)CSSC[C@H](NC(=O)[C@H](CCCCN)NC(=O)[C@H](CCC(N)=O)NC(=O)[C@H](CCCCN)NC3=O)C(=O)N[C@@H](CC(C)C)C(=O)N[C@@H](CCCCN)C(=O)N[C@@H](C)C(=O)N[C@@H]([C@@H](C)CC)C(=O)NCC(=O)N[C@@H](CO)C(=O)N[C@@H]([C@@H](C)CC)C(=O)N[C@@H](Cc1ccccc1)C(=O)NCC(=O)N[C@@H](CCCCN)C(=O)N2` [Compound 95] (H-NID[Nle]RCSASVECKQKCLKAIGSIFGKC[Nle]NKKCKCYPR-OH; disulfide 6-27, 12-32, 16-34), in data set [1] (setting [3]), the pIC50 was 9.80. In addition, on Kv1.1, the half-inhibitory concentration (IC50) was greater than 3000 nM and the “Selectivity Kv1.1/Kv1.3” value is greater than 11300. Moreover, the IC50 at Kv1.2 is 2060 nM. For the same compound, the IC50 on Kv1.3 amounted to 0.27 nM. In addition, at Kv1.6, the IC50 was greater than 3000 nM and the “Selectivity Kv1.6/Kv1.3” value is on record as greater than 11300. Also, the “% inhibition of ear thickness (AUC of Δ ear thickness 0-48 hours)” value in data set [2] (Exp #5, Kv1.3 blocker 100 nmol/kg SC 24 hrs prior to KLH challenge, CsA 10 mg/kg per os) turned out to be 39.6%. In “in vivo”, this compound gave an AUC(0-inf) of 0.085 µM·h, a Cmax of 46.5 nM and a half-life of 65.4 min.
Consider `CC[C@H](C)[C@@H]1NC(=O)[C@H](C)NC(=O)[C@H](CCCCN)NC(=O)[C@H](CC(C)C)NC(=O)[C@@H]2CSSC[C@@H](C(=O)N[C@@H](Cc3ccc(O)cc3)C(=O)N3CCC[C@H]3C(=O)N[C@@H](CCCNC(=N)N)C(N)=O)NC(=O)[C@H](CCCCN)NC(=O)[C@@H]3CSSC[C@H](NC(=O)[C@H](CCC(=O)O)NC(=O)[C@H](C(C)C)NC(=O)[C@H](CO)NC(=O)[C@H](C)NC(=O)[C@H](CO)NC(=O)[C@@H](NC(=O)[C@H](CCCNC(=N)N)NC(=O)[C@H](CCSC)NC(=O)[C@H](CC(=O)O)NC(=O)[C@H](CCSC)NC(=O)[C@@H](N)CC(N)=O)CSSC[C@H](NC(=O)[C@H](CCCCN)NC(=O)CNC(=O)[C@H](Cc4ccccc4)NC(=O)[C@H]([C@@H](C)CC)NC(=O)[C@H](CO)NC(=O)CNC1=O)C(=O)N[C@@H](CCSC)C(=O)N[C@@H](CC(N)=O)C(=O)N[C@@H](CCCCN)C(=O)N[C@@H](CCCCN)C(=O)N3)C(=O)N[C@@H](C)C(=O)N[C@@H](CCC(N)=O)C(=O)N[C@@H](CCCCN)C(=O)N2` [Compound 30] (H-NMDMRCSASVECAQKCLKAIGSIFGKCMNKKCKCYPR-NH2; disulfide 6-27, 12-32, 16-34), for which the figures for the pIC50 (in data set [1] (setting [3]); against Rat whole blood) were 10.05 and no less than 9.00, respectively. In addition, the IC50 at Kv1.1 was greater than 3000 nM; at Kv1.2 it was 666 nM; at Kv1.3 it was 0.14 nM; at Kv1.6, greater than 3000 nM. For the same compound, the “Selectivity Kv1.1/Kv1.3” value on Kv1.1 is greater than 22000. Besides, on Kv1.6, the “Selectivity Kv1.6/Kv1.3” value is reported as greater than 22000. The AUC(0-inf) in the data set “in vivo” turned out to be 0.0467 µM·h. This compound also registered a Cmax in the data set “in vivo” of 33.3 nM. This compound had a half-life in “in vivo” of 44.4 min.
For the compound `CC[C@H](C)[C@@H]1NC(=O)[C@H](C)NC(=O)[C@H](CCCCN)NC(=O)[C@H](CC(C)C)NC(=O)[C@@H]2CSSC[C@@H](C(=O)N[C@@H](Cc3ccc(O)cc3)C(=O)N3CCC[C@H]3C(=O)N[C@@H](CCCNC(=N)N)C(=O)O)NC(=O)[C@H](CCCCN)NC(=O)[C@@H]3CSSC[C@H](NC(=O)[C@H](CCC(=O)O)NC(=O)[C@H](C(C)C)NC(=O)[C@H](CO)NC(=O)[C@H](C)NC(=O)[C@H](CO)NC(=O)[C@@H](NC(=O)[C@H](CCCNC(=N)N)NC(=O)[C@H](CCSC)NC(=O)[C@H](CC(=O)O)NC(=O)[C@@H](N)CCSC)CSSC[C@H](NC(=O)[C@H](CCCCN)NC(=O)CNC(=O)[C@H](Cc4ccccc4)NC(=O)[C@H]([C@@H](C)CC)NC(=O)[C@H](CO)NC(=O)CNC1=O)C(=O)N[C@@H](CCSC)C(=O)N[C@@H](CC(N)=O)C(=O)N[C@@H](CCCCN)C(=O)N[C@@H](CCCCN)C(=O)N3)C(=O)N[C@@H](CCCCN)C(=O)N[C@@H](CCC(N)=O)C(=O)N[C@@H](CCCCN)C(=O)N2` [Compound 5] (H-MDMRCSASVECKQKCLKAIGSIFGKCMNKKCKCYPR-OH; disulfide 5-26, 11-31, 15-33), the pIC50 in data set [1] (setting [3]) is 9.60. In addition, on Kv1.1, the IC50 is greater than 3000 nM and the “Selectivity Kv1.1/Kv1.3” value was greater than 7900. The IC50 at Kv1.2 amounted to 285 nM. Further, at Kv1.3, the IC50 was determined as 0.38 nM. Also, at Kv1.6, the IC50 is greater than 3000 nM and the “Selectivity Kv1.6/Kv1.3” value was greater than 7900. In the data set “in vivo”, the AUC(0-inf) is 0.0724 µM·h, the Cmax was 48.4 nM and the half-life is 55.8 min.
